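Results reflect a 48-hour exposure of cells in 96-well plates to compound at five concentrations. GI50 = concentration required for 50% inhibition of growth.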 The source made the active and inactive calls. Cut-off read from the data, not from the text of the source: active = GI50 up to about 1.1 µM and inactive = higher.
How the values were obtained:
Experiment in all cases: NCI-60 cell line screen, 48 h
UACC-257 = system: UACC-257
KM12 = system: KM12
SR = system: SR
OVCAR-5 = system: OVCAR-5
MDA-MB-231 = system: MDA-MB-231
SNB-19 = system: SNB-19
NCI-H522 = system: NCI-H522
MDA-N = system: MDA-N
M14 = system: M14
HCT-116 = system: HCT-116
TK-10 = system: TK-10
OVCAR-3 = system: OVCAR-3
CAKI-1 = system: CAKI-1
UO-31 = system: UO-31
HT-29 = system: HT-29
IGROV-1 = system: IGROV-1
SF-539 = system: SF-539
NCI/ADR-RES = system: NCI/ADR-RES
RXF 393 = system: RXF 393
PC-3 = system: PC-3
UACC-62 = system: UACC-62
HOP-62 = system: HOP-62
OVCAR-4 = system: OVCAR-4
EKVX = system: EKVX
SN12C = system: SN12C
HCC 2998 = system: HCC 2998
DU-145 = system: DU-145
K562 = system: K562
U-251 = system: U-251
SK-MEL-5 = system: SK-MEL-5
MCF7 = system: MCF7
MOLT-4 = system: MOLT-4
SK-MEL-2 = system: SK-MEL-2
Malme-3M = system: Malme-3M
SF-295 = system: SF-295
A498 = system: A498
A549 = system: A549
NCI-H23 = system: NCI-H23
HL-60 = system: HL-60
SK-OV-3 = system: SK-OV-3
ACHN = system: ACHN
COLO 205 = system: COLO 205
T47D = system: T47D
NCI-H226 = system: NCI-H226
RPMI-8226 = system: RPMI-8226
SW-620 = system: SW-620
786-0 = system: 786-0
NCI-H460 = system: NCI-H460
LOX IMVI = system: LOX IMVI
CCRF-CEM = system: CCRF-CEM
OVCAR-8 = system: OVCAR-8
SK-MEL-28 = system: SK-MEL-28
SNB-75 = system: SNB-75
MDA-MB-435 = system: MDA-MB-435
SF-268 = system: SF-268
HCT-15 = system: HCT-15
HOP-92 = system: HOP-92
Hs-578T = system: Hs-578T

Measured: GI50

CN1CCN(C2=NCCO2)CC1
inactive: UACC-257 > 100 µM | KM12 > 100 µM | SR > 100 µM | OVCAR-5 > 100 µM | MDA-MB-231 > 100 µM | SNB-19 > 100 µM | NCI-H522 > 100 µM | MDA-N > 100 µM | M14 > 100 µM | HCT-116 > 100 µM | TK-10 > 100 µM | OVCAR-3 > 100 µM | CAKI-1 > 100 µM | UO-31 > 100 µM | HT-29 > 100 µM | IGROV-1 > 100 µM | SF-539 > 100 µM | NCI/ADR-RES > 100 µM | RXF 393 > 100 µM | PC-3 > 100 µM | UACC-62 > 100 µM | HOP-62 > 100 µM | OVCAR-4 > 100 µM | EKVX > 100 µM | SN12C > 100 µM | HCC 2998 > 100 µM | DU-145 > 100 µM | K562 > 100 µM | U-251 > 100 µM | SK-MEL-5 > 100 µM | MCF7 > 100 µM | MOLT-4 > 100 µM | SK-MEL-2 > 100 µM | Malme-3M > 100 µM | SF-295 > 100 µM | A498 > 100 µM | A549 > 100 µM | NCI-H23 > 100 µM | HL-60 > 100 µM | SK-OV-3 > 100 µM | ACHN > 100 µM | COLO 205 > 100 µM | T47D > 100 µM | NCI-H226 > 100 µM | RPMI-8226 > 100 µM | SW-620 > 100 µM | 786-0 > 100 µM | NCI-H460 > 100 µM | LOX IMVI > 100 µM | CCRF-CEM > 100 µM | OVCAR-8 > 100 µM | SK-MEL-28 > 100 µM | SNB-75 > 100 µM | MDA-MB-435 > 100 µM | SF-268 > 100 µM
> 100 µM: HCT-15

CSC1=N/C(=C\c2ccccc2)C(=O)N1CN1CCCCC1
inactive: KM12 65 µM | SR 31.3 µM | OVCAR-5 > 100 µM | MDA-MB-231 86.3 µM | SNB-19 46.1 µM | NCI-H522 42.3 µM | MDA-N 88.3 µM | M14 61.7 µM | HCT-116 33.2 µM | TK-10 99.3 µM | OVCAR-3 > 100 µM | UO-31 39.5 µM | HT-29 22.5 µM | IGROV-1 38.7 µM | NCI/ADR-RES 20 µM | PC-3 55.5 µM | UACC-62 58.3 µM | HOP-92 11.7 µM | HOP-62 > 100 µM | OVCAR-4 16.4 µM | EKVX 51.1 µM | SN12C > 100 µM | DU-145 > 100 µM | K562 26.7 µM | U-251 72.6 µM | SK-MEL-5 43.1 µM | MCF7 24.6 µM | MOLT-4 37.5 µM | SK-MEL-2 > 100 µM | Malme-3M 54.5 µM | SF-295 > 100 µM | A498 77.8 µM | A549 87.7 µM | NCI-H23 76.6 µM | SK-OV-3 > 100 µM | Hs-578T 36.4 µM | ACHN 34.9 µM | COLO 205 65.5 µM | NCI-H226 35.7 µM | RPMI-8226 27.4 µM | SW-620 44.4 µM | 786-0 42.2 µM | LOX IMVI 38.5 µM | CCRF-CEM 52.5 µM | OVCAR-8 30.1 µM | SK-MEL-28 > 100 µM | SNB-75 56.1 µM | MDA-MB-435 49.7 µM | SF-268 55.5 µM
> 10 µM: HCT-15

Reference: ChEMBL document CHEMBL1201862, “PubChem BioAssay data set” (2004)
